Where two headings read alike, the source gives them in different places.
Columns and labels:
[1] = IVIVE: steady-state concentration (Css), generic HTTK model; design: species or system human; settings: for Css (mg/L) / Css (uM): Assuming 1 mg/kg/day dose rate, BW 70 kg; for CLhep: QL 1500000 uL/min; for Fub: fub=fup/(B:P), Fub set to 1 if needed; for CLint: scaled to whole liver: HPGL 110 mill cells/g, Vl 1596 g; for Css: human steady-state concentration, 1 mg/kg/day exposure rate, loss of parent compound only
In short: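 Human Css estimated by IVIVE: plasma protein binding converted to blood fraction unbound via blood-to-plasma partitioning, and experimental Clint scaled with liver scalars to whole liver clearance. AEDs then derived by reverse dosimetry from Css and PFAS in vitro POD, defined as fifth-percentile AC50.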

[2] = tested on: plasma protein; settings: cited from earlier work; for fup (fraction unbound in plasma): human plasma
[3] = tested on: pooled primary human hepatocyte suspensions; settings: both, hepatocytes, 1 μM
[4] = tested on: pooled primary human hepatocyte suspensions; assay: in vitro; settings: for In Vitro Clint: Table 3, 0 = no significant clearance
In short: (§1)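 Substrate depletion at 1 μM PFAS in pooled cryopreserved human hepatocytes (~0.5 × 10^6 viable cells/mL, 50-donor pool), 37 °C with shaking, sampled 0–240 min in triplicate. Quantified by LC-MS in negative ion mode against matrix-matched calibration; media-only or heat-inactivated cells as nonmetabolic-loss controls.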

[5] = Hepatic clearance assay (substrate depletion, LC-MS); settings: both, human
In short: as §1

[6] = tested on: pooled primary human hepatocyte suspensions; assay: Bayesian (MCMC, invitroTKstats) analysis of hepatic clearance data; settings: for metabolic clearance call, experimental and Bayesian analyses in agreement: both analyses agreed; for Clint.1.Med: Level-4 Bayesian estimate, posterior median, Clint.1 series (Clint.10 all NA)
[7] = Administered equivalent dose (AED) by reverse dosimetry; design: species or system human; settings: from Css and AC50 POD by reverse dosimetry
Method: IVIVE was performed as previously described to calculate human steady-state concentrations (Css). Briefly, experimental plasma protein binding data presented elsewhere were transformed to fraction unbound in blood using blood-to-plasma partitioning values. Experimental Clint values generated here are used in conjunction with relevant liver scalars to scale up to estimate whole liver clearance. […] Once Css values were established, these were used with the PFAS-specific in vitro POD data to calculate the administered equivalent doses (AEDs) using reverse dosimetry. […] The fifth-percentile AC50 value was used to define the in vitro POD. All relevant inputs, scalars, and calculations are provided in Supplementary Information, as indicated in the results.

[8] = design: method as in PMID 32648786; settings: human; cited from earlier work
[9] = design: method as in PMID 26085347; settings: simulation; cited from earlier work
[10] = design: method as in PMID 36851038; settings: dynamic one-compartment model; cited from earlier work
[11] = CLint value carried into HTTK/IVIVE, in µL/min/10^6 cells
[12] = pooled primary human hepatocyte suspensions, in µL/min/10^6 cells
[13] = unadjusted hepatic intrinsic clearance, pooled primary human hepatocyte suspensions, Table S4, in µL/min/10^6 cells
[14] = pooled human hepatocyte suspension, 1 μM

Row | SMILES | Unadj Clint [4, 13] | Css [1] [µM] | fup (fraction unbound in plasma) [2] | In Vitro Clint [4, 14] [μL/min/million cells] | hepatocyte CLint at 1 μM ([5]; hepatocytes) [µL/min/1e6 cells] | AED [7] [mg/kg/day] | further results
1 | O=C(O)CCC(F)(C(F)(F)F)C(F)(F)F | – | – | – | – | – | – | Css (mg/L) [1]: 2.52 mg/L; Css (uM) [1]: 10.43 µM; CLhep [1]: 0.000 L/h; Fub [1]: 0.1738; CLint [1]: 0 µL/min; Mean fu ([2]; plasma): 0.0956; Clint.1.Med [3]: 0; CLint for HTTK ([4]; both, human, hepatocytes, 1 μM): 0; Unadj Clint ([4]; both, human, hepatocytes, 1 μM): 0.00; in vitro CLint exp assay ([4]; both, human, hepatocytes, 1 μM): 0
2 | O=C(O)C=CC(F)(C(F)(F)F)C(F)(F)F [3-(Perfluoroisopropyl)-2-propenoic acid] | 1.23 | – | – | – | – | – | Css (mg/L) [1]: 2.41 mg/L; Css (uM) [1]: 10.03 µM; CLhep [1]: 0.000 L/h; Fub [1]: 0.1824; CLint [1]: 0 µL/min; Mean fu ([2]; fraction unbound in plasma, input for IVIVE calculations): 0.1003; Clint.1.Med [3]: 0; CLint for HTTK [4, 11]: 0; in vitro CLint exp assay [4, 12]: 0
3 | O=S(=O)(O)CCC(F)(F)C(F)(F)C(F)(F)C(F)(F)F [4:2 FTS, 4:2 Fluorotelomer sulfonic acid] | 4.28 | 19.12 | 0.0050 | 4.28 | 4.28 | – | –
4 | O=C(O)CCC(F)(F)C(F)(F)C(F)(F)C(F)(F)C(F)(F)F [5:3 FTCA, 2H,2H,3H,3H-Perfluorooctanoic acid] | 11.84 | 6.18 | 0.0059 | 11.84 | 11.8 | 0.99 | metabolic clearance call, experimental and Bayesian analyses in agreement [6]: metabolized
5 | O=S(=O)(O)CCC(F)(F)C(F)(F)C(F)(F)C(F)(F)C(F)(F)C(F)(F)F [6:2 FTS, 6:2 Fluorotelomer sulfonic acid] | 1.40 | 12.36 | 0.0143 | 1.4 | 1.4 | 0.89 | –
6 | O=C(O)CCC(F)(F)C(F)(F)C(F)(F)C(F)(F)C(F)(F)C(F)(F)F [6:3 FTCA, 6:3 Fluorotelomer carboxylic acid] | – | 30.01 | 0.0023 | 5.05 | – | 0.18 | Css (mg/L) [1]: 11.76 mg/L; Css (uM) [1]: 30.01 µM; CLhep [1]: 0.222 L/h; Fub [1]: 0.004182; CLint [1]: 886578 µL/min; Clint.1.Med [6]: 0; CLint for HTTK [4, 11]: 5.05; CLint ([4]; Table 2, pooled human hepatocyte suspension, 1 μM, 0-240 min, 0 = slope not significant (p>0.05)): 5.05 μL/min/million cells; in vitro CLint exp assay [4, 12]: 5.05
7 | O=C(O)CCC(F)(F)C(F)(F)C(F)(F)C(F)(F)C(F)(F)C(F)(F)C(F)(F)F [7:3 FTCA, 3-Perfluoroheptylpropanoic acid] | 19.74 | 4.99 | 0.0051 | 15.7 | 15.7 | 0.19 | Css (mg/L) [1]: 2.20 mg/L; Css (uM) [1]: 4.99 µM; CLhep [1]: 1.272 L/h; Fub [1]: 0.009273; CLint [1]: 2319148 µL/min; Clint.1.Med [6]: 15.6; metabolic clearance call, experimental and Bayesian analyses in agreement [6]: metabolized; CLint for HTTK [4, 11]: 13.21; in vitro CLint exp assay [4, 12]: 13.21
8 | O=S(=O)(O)CCC(F)(F)C(F)(F)C(F)(F)C(F)(F)C(F)(F)C(F)(F)C(F)(F)C(F)(F)F [8:2 FTS, 8:2 Fluorotelomer sulfonic acid] | 1.53 | – | – | – | – | – | hepatocyte CLint at 1 μM ([5]; cryopreserved pooled primary human hepatocyte suspensions): 1.53 µL/min/1e6 cells
9 | O=C(O)C(F)(F)C(F)(F)C(F)(F)C(F)(F)C(F)(F)C(F)(F)C(F)F [8H-PFOA, 8H-Perfluorooctanoic acid] | 0.00 | 290.23 | 0.0021 | – | – | 0.04 | Clint.1.Med [6]: 0
10 | CCNS(=O)(=O)C(F)(F)C(F)(F)C(F)(F)C(F)(F)C(F)(F)C(F)(F)C(F)(F)C(F)(F)F [NEtFOSA, N-Ethylperfluorooctanesulfonamide] | – | – | – | – | > 15 | – | Clint.1.Med [3]: 164; Unadj Clint ([4]; both, human, hepatocytes, 1 μM): 24.92
11 | O=S(=O)(O)C(F)(F)C(F)(F)C(F)(F)C(F)(F)F [PFBS, Perfluorobutanesulfonic acid] | 4.75 | 7.51 | 0.0128 | 4.75 | 4.75 | 0.83 | estimated half life [8]: as low as one month
12 | O=S(=O)(O)C(F)(F)C(F)(F)C(F)(F)C(F)(F)C(F)(F)C(F)(F)F [PFHxS, Perfluorohexanesulfonic acid] | 1.52 | 670.49 | 0.0009 | – | – | 0.033 | –
13 | O=C(O)C(F)(F)C(F)(F)C(F)(F)C(F)(F)C(F)(F)C(F)(F)C(F)(F)C(F)(F)F [PFNA, Perfluorononanoic acid] | 0.83 | 325.11 | 0.0016 | – | – | 0.05 | –
14 | O=C(O)C(F)(F)C(F)(F)C(F)(F)C(F)(F)C(F)(F)C(F)(F)C(F)(F)F [PFOA, Perfluorooctanoic acid] | – | 582.99 | 0.0010 | – | – | 0.01 | time to reach steady state [9]: 3.5 years; Unadj Clint ([4]; unadjusted hepatic intrinsic clearance, pooled primary human hepatocyte suspensions, Table S4, listed as Perfluorooctanoic acid, in µL/min/10^6 cells): 1.49
15 | O=S(=O)(O)C(F)(F)C(F)(F)C(F)(F)C(F)(F)C(F)(F)C(F)(F)C(F)(F)C(F)(F)F [PFOS, Perfluorooctanesulfonic acid] | – | 98.52 | 0.0049 | – | – | 0.08 | time to reach steady state [9]: 6.6 years; time to reach steady-state values [10]: 30 years; Unadj Clint ([4]; unadjusted hepatic intrinsic clearance, pooled primary human hepatocyte suspensions, Table S4, listed as Perfluorooctanesulfonic acid, in µL/min/10^6 cells): 1.38
16 | NS(=O)(=O)C(F)(F)C(F)(F)C(F)(F)C(F)(F)C(F)(F)C(F)(F)C(F)(F)C(F)(F)F [PFOSA, Perfluorooctanesulfonamide] | – | – | – | – | > 15 | – | Clint.1.Med [3]: 0; Unadj Clint ([4]; both, human, hepatocytes, 1 μM): 22.84
17 | O=C(O)C(F)(F)C(F)(F)C(F)(F)OC(F)(C(F)(F)F)C(F)(F)F [PFPE-1, Perfluoro-4-isopropoxybutanoic acid] | 5.78 | – | – | – | 5.78 | – | –
